Laboratory results reported in article PMC9126943, “ADAMTS4-specific MR probe to assess aortic aneurysms in vivo using synthetic peptide libraries” (Nature Communications, 2022).
Where a SMILES comes first, the peptide text is derived from it. Bridges are numbered along the chain shown (N, C = ends). The star is where a group is joined. DOTA = O=C(O)CN1CCN(CC(=O)O)CCN(CC(=O)*)CCN(CC(=O)O)CC1

Target: T1, ADAMTS4 in the aortic wall of ApoE−/− mice (Mus musculus, UniProt Q8BNJ2)
T1 construct: from tissue
T1 sequence (Q8BNJ2 209-833): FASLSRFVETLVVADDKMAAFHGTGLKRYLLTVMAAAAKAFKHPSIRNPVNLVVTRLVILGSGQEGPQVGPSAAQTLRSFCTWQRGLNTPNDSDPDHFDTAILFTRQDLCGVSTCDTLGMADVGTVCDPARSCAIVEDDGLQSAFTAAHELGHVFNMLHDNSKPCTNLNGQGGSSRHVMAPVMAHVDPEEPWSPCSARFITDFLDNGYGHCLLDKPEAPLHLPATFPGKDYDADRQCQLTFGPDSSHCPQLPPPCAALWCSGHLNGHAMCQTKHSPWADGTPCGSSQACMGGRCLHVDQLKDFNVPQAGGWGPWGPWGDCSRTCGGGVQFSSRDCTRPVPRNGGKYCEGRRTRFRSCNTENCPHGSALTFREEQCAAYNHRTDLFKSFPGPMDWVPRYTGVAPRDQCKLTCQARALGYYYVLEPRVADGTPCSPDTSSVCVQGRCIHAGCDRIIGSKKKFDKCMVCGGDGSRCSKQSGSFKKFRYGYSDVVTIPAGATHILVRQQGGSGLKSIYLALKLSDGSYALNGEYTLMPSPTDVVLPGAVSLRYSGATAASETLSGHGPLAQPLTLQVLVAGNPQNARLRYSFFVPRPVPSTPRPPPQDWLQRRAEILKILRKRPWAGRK
Test: In vivo MRI, early detection study (days 2, 4, 10)
Settings: for ADAMTS4-MRI signal (CNR): day 4 of AngII
Protocol: For the early detection study, we used an AAA group (n = 20). MR imaging was performed after 2, 4, and 10 days of AngII-infusion. At each time point, mice were scanned prior to and following the administration of the ADAMTS4-specific probe (0.13 mmol/kg body weight). On day 28 post implantation, only native imaging was performed and subsequently, the aortic samples were excised.
MR imaging was performed using a clinical 3 T Siemens system (Biograph, Siemens Healthcare Solutions, Erlangen, Germany). The system was equipped with a 4-channel receive-coil array for mouse body applications (Mouse Heart Array, P-H04LE-030, Version 1, Rapid Biomedical, Germany). Following anesthesia injection, the animals were positioned in a prone position, and body temperature (37 °C) was monitored using an MR-compatible heating system (Model 1025, SA Instruments Inc, Stony Brook, NY) to avoid rapid cooling. For intravenous administration of the molecular probe, venous access was established using a small diameter tube with an attached 30 G cannula. The imaging protocol included the following sequences:
After a three-dimensional (3D) gradient-echo scout scan, a non-contrast-enhanced two-dimensional time-of-flight angiography (2D TOF) was acquired in transverse orientation for visualization of the abdominal aorta with the following parameters: field of view (FOV) of […], a matrix of 960 × 960, resolution of 0.2 × 0.2 × 0.5 mm, 40 slices, repetition time (TR)/echo time (TE) of 35 ms/4.44 ms, flip angle of 90°, and bandwidth of 124 Hz/Px. A maximum intensity projection (MIP) was then automatically generated to obtain an arterial angiogram of the abdominal aorta for planning the subsequent MR angiography and delayed-enhancement scans. A 2D inversion time (TI) scout sequence, planned perpendicular to the abdominal aorta, was used to determine the optimal TI for blood-signal nulling. Acquisition parameters were as follows: for the 2D TI sequence—FOV 340 × 340 mm, matrix 576 × 576, spatial resolution 0.6 × 0.6 × 3 mm, TR/TE 44.91 ms/2.09 ms, flip angle 35°, bandwidth 579 Hz/Px, TR between subsequent IR pulses 1000 ms; and for the high-resolution 3D IR FLASH sequence—FOV 57 × 57 mm, matrix 384 × 384, spatial resolution = 0.1 × 0.1 × 0.3 mm, 56 slices, TR/TE = 1019.72/7.02 ms, flip angle 30°, bandwidth 130 Hz/px, TR between subsequent IR pulses = 1000 ms.
Analysis of resulting MR images was performed using OsiriX (version 7.1, OsiriX Foundation, Bernex, Switzerland). All morphometric measurements were conducted on high-resolution MRI images. In order to assess the signal intensities, regions of interest (ROIs) were measured as areas of signal enhancement, which were co-localized with areas of aneurysmal-aortic tissue. For these areas, the CNR was calculated using the following formula: CNR = (Combined vessel-wall and aneurysmal-aortic-tissue-signal − blood-signal)/standard-deviation-signal (noise). The signal of noise was defined as the standard deviation in pixel intensity from an ROI placed in the background air anterior to the aorta.

N=C(N)NCCC[C@@H]1NC(=O)[C@H](CCCNC(=N)N)NC(=O)[C@H](CO)NC(=O)[C@@H](N)CSSC[C@@H](C(=O)N[C@@H](CO)C(=O)NCC(=O)NCC(=O)N[C@@H](CO)C(=O)NCC(=O)NCC(=O)N[C@@H](CCCCNC(=O)CN2CCN(CC(=O)O)CCN(CC(=O)O)CCN(CC(=O)O)CC2)C(=O)NCC(N)=O)NC(=O)CNC1=O (Gd complex, metal not drawn) [ADAMTS4-specific probe] (H-CSRRGCSGGSGGK(DOTA)G-NH2; disulfide 1-6)
ROC curve area for prediction of a fatal AAA rupture (ADAMTS4-MRI level after 4 days): 0.96 | sensitivity for prediction of a fatal AAA rupture (ROC) (ADAMTS4-MRI level after 4 days): 0.88 | specificity for prediction of a fatal AAA rupture (ROC) (ADAMTS4-MRI level after 4 days): 0.9 | ADAMTS-4 levels (CNR) (day 4, subgroup n = 4 without significant outward remodeling on MRI): 11.7±0.8 | ADAMTS4-MRI signal (CNR) (animals that developed an AAA and survived for 4 weeks): 10.3 ± 1.1 | ADAMTS4-MRI signal (CNR) (animals that did not develop an AAA): 6.9 ± 1.2 | ADAMTS4-MRI signal (CNR) (animals with fatal AAA rupture): 15.2 ± 0.7
